Measurements published in patent USRE30451E, “Novel process for producing antibiotics bleomycin” (priority 1969, dated 1980).

Legend:
[1] = tumour-inoculated ICR/JCL mice, intraperitoneally once a day for 10 days, doses 25 mg/kg to 0.19 mg/kg, Behres-Karber's method, observed up to 50 days
[2] = system: Ehrlich ascites carcinoma cells; conditions: maximum dose level at which mice survive 100 to 200 percent of control survival days; intraperitoneally once a day for 10 days, doses 25 mg/kg to 0.19 mg/kg

Structure (SMILES) | LD50 [1] | ED50 [2]
COCCCNCCCNC(=O)c1csc(-c2csc(CCNC(=O)C(NC(=O)C(C)C(O)C(C)NC(=O)C(NC(=O)c3nc(C(CC(N)=O)NCC(N)C(N)=O)nc(N)c3C)C(OC3OC(CO)C(O)C(O)C3OC3OC(CO)C(O)C(OC(N)=O)C3O)c3cnc[nH]3)C(C)O)n2)n1 (stereo not shown) [Compound 33, 3-(3-methoxypropyl)-aminopropylaminobleomycin] | 7.5 | 0.19
CO[C@@]12[C@H](COC(N)=O)C3=C(C(=O)C(C)=C(N)C3=O)N1C[C@@H]1N[C@@H]12 [Mytomycin C, reference compound] | – | 0.39
Cc1c(N)nc(C(CC(N)=O)NCC(N)C(N)=O)nc1C(=O)NC(C(=O)NC(C)C(O)C(C)C(=O)NC(C(=O)NCCc1nc(-c2nc(C(=O)NCCNCC(C)O)cs2)cs1)C(C)O)C(OC1OC(CO)C(O)C(O)C1OC1OC(CO)C(O)C(OC(N)=O)C1O)c1cnc[nH]1 (stereo not shown) [Compound 13, 2-(2-hydroxypropyl)-aminoethylamino-bleomycin] | – | 0.39
Cc1c(N)nc(C(CC(N)=O)NCC(N)C(N)=O)nc1C(=O)NC(C(=O)NC(C)C(O)C(C)C(=O)NC(C(=O)NCCc1nc(-c2nc(C(=O)NCCCN3CCOCC3)cs2)cs1)C(C)O)C(OC1OC(CO)C(O)C(O)C1OC1OC(CO)C(O)C(OC(N)=O)C1O)c1cnc[nH]1 (stereo not shown) [Compound 26, 3-(morpholino)-propylamoni-bleomycin] | – | 0.78
Cc1c(N)nc(C(CC(N)=O)NCC(N)C(N)=O)nc1C(=O)NC(C(=O)NC(C)C(O)C(C)C(=O)NC(C(=O)NCCc1nc(-c2nc(C(=O)NCCCN3CCCCC3)cs2)cs1)C(C)O)C(OC1OC(CO)C(O)C(O)C1OC1OC(CO)C(O)C(OC(N)=O)C1O)c1cnc[nH]1 (stereo not shown) [Compound 25, 3-(piperidino)-propylamino-bleomycin] | – | 0.39
Cc1c(N)nc([C@H](CC(N)=O)NC[C@H](N)C(N)=O)nc1C(=O)N[C@H](C(=O)N[C@H](C)[C@@H](O)[C@H](C)C(=O)N[C@H](C(=O)NCCc1nc(-c2nc(C(=O)NCCC[S+](C)C)cs2)cs1)[C@@H](C)O)[C@@H](O[C@@H]1O[C@@H](CO)[C@@H](O)[C@H](O)[C@@H]1O[C@H]1O[C@H](CO)[C@@H](O)[C@H](OC(N)=O)[C@@H]1O)c1c[nH]cn1.[Br-] [Compound 1, Bleomycin A2, reference compound] | – | 0.78
Cc1c(N)nc(C(CC(N)=O)NCC(N)C(N)=O)nc1C(=O)NC(C(=O)NC(C)C(O)C(C)C(=O)NC(C(=O)NCCc1nc(-c2nc(C(=O)NCCCN(C)C)cs2)cs1)C(C)O)C(OC1OC(CO)C(O)C(O)C1OC1OC(CO)C(O)C(OC(N)=O)C1O)c1cnc[nH]1 (stereo not shown) [Compound 19, 3-(N,N-dimethyl)-aminopropylamino-bleomycin] | – | 0.39
Cc1c(N)nc(C(CC(N)=O)NCC(N)C(N)=O)nc1C(=O)NC(C(=O)NC(C)C(O)C(C)C(=O)NC(C(=O)NCCc1nc(-c2nc(C(=O)NCCCN(C)CCCN)cs2)cs1)C(C)O)C(OC1OC(CO)C(O)C(O)C1OC1OC(CO)C(O)C(OC(N)=O)C1O)c1cnc[nH]1 (stereo not shown) [Compound 22, 3-[N-methyl-N-(3-aminopropyl)]-aminopropylamino-bleomycin] | – | 0.19
Cc1c(N)nc(C(CC(N)=O)NCC(N)C(N)=O)nc1C(=O)NC(C(=O)NC(C)C(O)C(C)C(=O)NC(C(=O)NCCc1nc(-c2nc(C(=O)NCCCN3CCCC3)cs2)cs1)C(C)O)C(OC1OC(CO)C(O)C(O)C1OC1OC(CO)C(O)C(OC(N)=O)C1O)c1cnc[nH]1 (stereo not shown) [Compound 24, 3-(pyrrolidino)-propylamino-bleomycin] | – | 0.39
Cc1c(N)nc(C(CC(N)=O)NCC(N)C(N)=O)nc1C(=O)NC(C(=O)NC(C)C(O)C(C)C(=O)NC(C(=O)NCCc1nc(-c2nc(C(=O)NCCC[N+](C)(C)C)cs2)cs1)C(C)O)C(OC1OC(CO)C(O)C(O)C1OC1OC(CO)C(O)C(OC(N)=O)C1O)c1cnc[nH]1 (stereo not shown) [Compound 20, 3-(N,N,N-trimethyl)-aminopropylamino-bleomycin] | – | 0.19
Cc1c(N)nc(C(CC(N)=O)NCC(N)C(N)=O)nc1C(=O)NC(C(=O)NC(C)C(O)C(C)C(=O)NC(C(=O)NCCc1nc(-c2nc(C(=O)NCCCNCCCN(C)C)cs2)cs1)C(C)O)C(OC1OC(CO)C(O)C(O)C1OC1OC(CO)C(O)C(OC(N)=O)C1O)c1cnc[nH]1 (stereo not shown) [Compound 21] | 10.3 | 0.19
Cc1c(N)nc(C(CC(N)=O)NCC(N)C(N)=O)nc1C(=O)NC(C(=O)NC(C)C(O)C(C)C(=O)NC(C(=O)NCCc1nc(-c2nc(C(=O)NCCCNCCCNC3CCCCC3)cs2)cs1)C(C)O)C(OC1OC(CO)C(O)C(O)C1OC1OC(CO)C(O)C(OC(N)=O)C1O)c1cnc[nH]1 (stereo not shown) [Compound 39, 3-(3-cyclohexylaminopropyl)-aminopropylamino bleomycin] | – | 0.19
Cc1c(N)nc(C(CC(N)=O)NCC(N)C(N)=O)nc1C(=O)NC(C(=O)NC(C)C(O)C(C)C(=O)NC(C(=O)NCCc1nc(-c2nc(C(=O)NCCCNCCCN3CCCC3)cs2)cs1)C(C)O)C(OC1OC(CO)C(O)C(O)C1OC1OC(CO)C(O)C(OC(N)=O)C1O)c1cnc[nH]1 (stereo not shown) [Compound 29, 3-(3-pyrrolidinopropyl)-aminopropylamino-bleomycin] | – | 0.09
Cc1c(N)nc(C(CC(N)=O)NCC(N)C(N)=O)nc1C(=O)NC(C(=O)NC(C)C(O)C(C)C(=O)NC(C(=O)NCCc1nc(-c2nc(C(=O)NCCN(C)C)cs2)cs1)C(C)O)C(OC1OC(CO)C(O)C(O)C1OC1OC(CO)C(O)C(OC(N)=O)C1O)c1cnc[nH]1 (stereo not shown) [Compound 9, 3-N,N-dimethylaminoethylamino-bleomycin] | – | 0.39
CCN(CC)CCCNC(=O)c1csc(-c2csc(CCNC(=O)C(NC(=O)C(C)C(O)C(C)NC(=O)C(NC(=O)c3nc(C(CC(N)=O)NCC(N)C(N)=O)nc(N)c3C)C(OC3OC(CO)C(O)C(O)C3OC3OC(CO)C(O)C(OC(N)=O)C3O)c3cnc[nH]3)C(C)O)n2)n1 (stereo not shown) [Compound 11, 3,-N,N-diethylaminopropylamino-bleomycin] | – | 0.19
CNCCCNC(=O)c1csc(-c2csc(CCNC(=O)C(NC(=O)C(C)C(O)C(C)NC(=O)C(NC(=O)c3nc(C(CC(N)=O)NCC(N)C(N)=O)nc(N)c3C)C(OC3OC(CO)C(O)C(O)C3OC3OC(CO)C(O)C(OC(N)=O)C3O)c3cnc[nH]3)C(C)O)n2)n1 (stereo not shown) [Compound 17, 3-N-methylaminopropylamino-bleomycin] | – | 0.19
Cc1c(N)nc(C(CC(N)=O)NCC(N)C(N)=O)nc1C(=O)NC(C(=O)NC(C)C(O)C(C)C(=O)NC(C(=O)NCCc1nc(-c2nc(C(=O)NCCCN3CCNCC3)cs2)cs1)C(C)O)C(OC1OC(CO)C(O)C(O)C1OC1OC(CO)C(O)C(OC(N)=O)C1O)c1cnc[nH]1 (stereo not shown) [Compound 14, 3-(piperazino)propylamino-bleomycin] | – | 0.39
Cc1c(N)nc(C(CC(N)=O)NCC(N)C(N)=O)nc1C(=O)NC(C(=O)NC(C)C(O)C(C)C(=O)NC(C(=O)NCCc1nc(-c2nc(C(=O)NCCCNCCCN3CCCCC3)cs2)cs1)C(C)O)C(OC1OC(CO)C(O)C(O)C1OC1OC(CO)C(O)C(OC(N)=O)C1O)c1cnc[nH]1 (stereo not shown) [Compound 30, 3-(3-piperidinopropyl)-aminopropylamino-bleomycin] | – | 0.39
Cc1c(N)nc(C(CC(N)=O)NCC(N)C(N)=O)nc1C(=O)NC(C(=O)NC(C)C(O)C(C)C(=O)NC(C(=O)NCCc1nc(-c2nc(C(=O)NCCCNC3CCCCC3)cs2)cs1)C(C)O)C(OC1OC(CO)C(O)C(O)C1OC1OC(CO)C(O)C(OC(N)=O)C1O)c1cnc[nH]1 (stereo not shown) [Compound 38, 3-cyclohexylaminopropylamino-bleomycin] | – | 0.39
Cc1c(N)nc(C(CC(N)=O)NCC(N)C(N)=O)nc1C(=O)NC(C(=O)NC(C)C(O)C(C)C(=O)NC(C(=O)NCCc1nc(-c2nc(C(=O)NCCCNCCCN3CCOCC3)cs2)cs1)C(C)O)C(OC1OC(CO)C(O)C(O)C1OC1OC(CO)C(O)C(OC(N)=O)C1O)c1cnc[nH]1 (stereo not shown) [Compound 31, 3-(3-morpholinopropyl)-aminopropylamino-bleomycin] | – | 0.19
Cc1c(N)nc(C(CC(N)=O)NCC(N)C(N)=O)nc1C(=O)NC(C(=O)NC(C)C(O)C(C)C(=O)NC(C(=O)NCCc1nc(-c2nc(C(=O)NCCCNCCCO)cs2)cs1)C(C)O)C(OC1OC(CO)C(O)C(O)C1OC1OC(CO)C(O)C(OC(N)=O)C1O)c1cnc[nH]1 (stereo not shown) [Compound 32, 3-(3-hydroxypropyl)-aminopropylamino-bleomycin] | – | 0.19
Cc1c(N)nc(C(CC(N)=O)NCC(N)C(N)=O)nc1C(=O)NC(C(=O)NC(C)C(O)C(C)C(=O)NC(C(=O)NCCc1nc(-c2nc(C(=O)NCC3CCNCC3)cs2)cs1)C(C)O)C(OC1OC(CO)C(O)C(O)C1OC1OC(CO)C(O)C(OC(N)=O)C1O)c1cnc[nH]1 (stereo not shown) [Compound 41, 4-piperidylmethylamino-bleomycin] | – | 0.78
Cc1c(N)nc(C(CC(N)=O)NCC(N)C(N)=O)nc1C(=O)NC(C(=O)NC(C)C(O)C(C)C(=O)NC(C(=O)NCCc1nc(-c2nc(C(=O)NCCCN3CCN(CCCN)CC3)cs2)cs1)C(C)O)C(OC1OC(CO)C(O)C(O)C1OC1OC(CO)C(O)C(OC(N)=O)C1O)c1cnc[nH]1 (stereo not shown) [Compound 28, 3-[1-{4-(3-aminopropyl)}-piperazino]propylamino-bleomycin] | – | 0.19
CCCCNCCCNCCCNC(=O)c1csc(-c2csc(CCNC(=O)C(NC(=O)C(C)C(O)C(C)NC(=O)C(NC(=O)c3nc(C(CC(N)=O)NCC(N)C(N)=O)nc(N)c3C)C(OC3OC(CO)C(O)C(O)C3OC3OC(CO)C(O)C(OC(N)=O)C3O)c3cnc[nH]3)C(C)O)n2)n1 (stereo not shown) [Compound 12, 3-(3-N-butyl-aminopropyl)-aminopropylamino-bleomycin] | – | 0.19
Cc1c(N)nc(C(CC(N)=O)NCC(N)C(N)=O)nc1C(=O)NC(C(=O)NC(C)C(O)C(C)C(=O)NC(C(=O)NCCc1nc(-c2nc(C(=O)NCCc3cnc[nH]3)cs2)cs1)C(C)O)C(OC1OC(CO)C(O)C(O)C1OC1OC(CO)C(O)C(OC(N)=O)C1O)c1cnc[nH]1 (stereo not shown) [Compound 42, 2-(4-imidazolyl)-ethylamino-bleomycin] | – | 0.78
Cc1c(N)nc(C(CC(N)=O)NCC(N)C(N)=O)nc1C(=O)NC(C(=O)NC(C)C(O)C(C)C(=O)NC(C(=O)NCCc1nc(-c2nc(C(=O)NCC(C)N)cs2)cs1)C(C)O)C(OC1OC(CO)C(O)C(O)C1OC1OC(CO)C(O)C(OC(N)=O)C1O)c1cnc[nH]1 (stereo not shown) [Compound 16, 2-aminopropylamino-bleomycin] | – | 0.39
